Reference: ChEMBL document CHEMBL1201862, “PubChem BioAssay data set” (2004)
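In this assay, cells in 96-well plates receive the compound at five concentrations for 48 hours. Endpoints are linearly interpolated between the surrounding concentrations. At the GI50, growth is halved.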 The source made the active and inactive calls. Cut-off read from the data, not from the text of the source: active = GI50 up to about 1.1 µM and inactive = higher.

Experiments:
Experiment in all cases: inhibition of tumour cell growth, NCI panel, 48 h
SR = test system: SR
KM12 = test system: KM12
NCI-H23 = test system: NCI-H23
BT-549 = test system: BT-549
HCT-15 = test system: HCT-15
SF-295 = test system: SF-295
HCC 2998 = test system: HCC 2998
SK-MEL-5 = test system: SK-MEL-5
SN12C = test system: SN12C
MOLT-4 = test system: MOLT-4
MCF7 = test system: MCF7
UACC-257 = test system: UACC-257
A498 = test system: A498
U-251 = test system: U-251
HCT-116 = test system: HCT-116
TK-10 = test system: TK-10
HT-29 = test system: HT-29
MDA-MB-231 = test system: MDA-MB-231
MDA-N = test system: MDA-N
CCRF-CEM = test system: CCRF-CEM

SMILES	GI50 (SR)	GI50 (KM12)	GI50 (NCI-H23)	GI50 (BT-549)	GI50 (HCT-15) [µM]	GI50 (SF-295)	GI50 (HCC 2998)	GI50 (SK-MEL-5)	GI50 (SN12C)	GI50 (MOLT-4)	GI50 (MCF7)	GI50 (UACC-257)	GI50 (A498)	GI50 (U-251)	GI50 (HCT-116)	GI50 (TK-10)	GI50 (HT-29)	GI50 (MDA-MB-231)	GI50 (MDA-N)	GI50 (CCRF-CEM)
O=C(Nc1ccc2oc(=O)c(C(=O)O)cc2c1)Oc1ccccc1	> 100 µM (inactive)	> 100 µM (inactive)	> 100 µM (inactive)	> 100 µM (inactive)	> 100	> 100 µM (inactive)	59.6 µM (inactive)	> 100 µM (inactive)	> 100 µM (inactive)	> 100 µM (inactive)	> 100 µM (inactive)	> 100 µM (inactive)	> 100 µM (inactive)	> 100 µM (inactive)	> 100 µM (inactive)	> 100 µM (inactive)	> 100 µM (inactive)	> 100 µM (inactive)		
CC1(C)CN=C(Nc2ccc(F)c(Cl)c2)S1	> 100 µM (inactive)	> 100 µM (inactive)	> 100 µM (inactive)	> 100 µM (inactive)	> 100	> 100 µM (inactive)	> 100 µM (inactive)	> 100 µM (inactive)	> 100 µM (inactive)	> 100 µM (inactive)	> 100 µM (inactive)	> 100 µM (inactive)		> 100 µM (inactive)	> 100 µM (inactive)	> 100 µM (inactive)	> 100 µM (inactive)		> 100 µM (inactive)	> 100 µM (inactive)
CCN(CC)/C(Sc1ccccc1)=C(\C(Cl)=C(Cl)Cl)[N+](=O)[O-]		17.7 µM (inactive)	13.7 µM (inactive)	15.8 µM (inactive)	14.9	17.6 µM (inactive)	19.5 µM (inactive)	14.1 µM (inactive)	17.9 µM (inactive)	6.93 µM (inactive)	14.9 µM (inactive)	19.1 µM (inactive)	21.1 µM (inactive)		16.4 µM (inactive)	16.9 µM (inactive)	21.5 µM (inactive)	24.2 µM (inactive)	16.9 µM (inactive)	4.99 µM (inactive)
Cc1ccc(C(=O)Nc2ccc(CP(=O)(O)O)cc2CP(=O)(O)O)cc1NC(=O)Nc1cc(C(=O)Nc2ccc(CP(=O)(O)O)cc2CP(=O)(O)O)ccc1C		> 100 µM (inactive)	> 100 µM (inactive)	> 100 µM (inactive)	> 100	> 100 µM (inactive)	> 100 µM (inactive)	> 100 µM (inactive)	> 100 µM (inactive)		60.5 µM (inactive)	> 100 µM (inactive)	> 100 µM (inactive)	> 100 µM (inactive)	> 100 µM (inactive)	> 100 µM (inactive)	> 100 µM (inactive)	> 100 µM (inactive)	> 100 µM (inactive)	> 100 µM (inactive)
c1ccc(SCCP(CCP(c2ccccc2)c2ccccc2)c2ccccc2)cc1 (stereo unspecified)		2.1 µM (inactive)	2.95 µM (inactive)	6.81 µM (inactive)	17.7	5.46 µM (inactive)	12.2 µM (inactive)	14 µM (inactive)	4.09 µM (inactive)	11.4 µM (inactive)	14.1 µM (inactive)	11.7 µM (inactive)		1.89 µM (inactive)	1.89 µM (inactive)	12.1 µM (inactive)	3.47 µM (inactive)	6.34 µM (inactive)	7.52 µM (inactive)	8.3 µM (inactive)
Cc1ccc2nc(-c3ccccc3)c(N=O)n2c1		40.6 µM (inactive)	36.1 µM (inactive)	37.1 µM (inactive)	34	87.1 µM (inactive)		46.3 µM (inactive)	20.2 µM (inactive)	28.4 µM (inactive)	11.6 µM (inactive)	37 µM (inactive)	> 100 µM (inactive)	38.9 µM (inactive)	35.7 µM (inactive)	38.3 µM (inactive)	48 µM (inactive)	17.4 µM (inactive)		38.5 µM (inactive)
CC(=O)Oc1cc(-c2oc3cc(OC(C)=O)c(C4OC(CO)C(O)C(O)C4O)c(OC(C)=O)c3c(=O)c2O)c(OC(C)=O)cc1O (stereo unspecified)		> 100 µM (inactive)	> 100 µM (inactive)	> 100 µM (inactive)	> 100	> 100 µM (inactive)	> 100 µM (inactive)	> 100 µM (inactive)	> 100 µM (inactive)	> 100 µM (inactive)	> 100 µM (inactive)	> 100 µM (inactive)		> 100 µM (inactive)	> 100 µM (inactive)	> 100 µM (inactive)	> 100 µM (inactive)	> 100 µM (inactive)	> 100 µM (inactive)	89.9 µM (inactive)
COC(=O)/C=C\S/C(=C(/c1ccccc1)n1ccc(C(=O)OC)n1)c1ccccc1	> 100 µM (inactive)	> 100 µM (inactive)	22.8 µM (inactive)	> 100 µM (inactive)	> 100	20.3 µM (inactive)	41 µM (inactive)	29.5 µM (inactive)	37.5 µM (inactive)	56.6 µM (inactive)	8.77 µM (inactive)	45.3 µM (inactive)		13 µM (inactive)	20.5 µM (inactive)	25.6 µM (inactive)	> 100 µM (inactive)	9.82 µM (inactive)		
COc1cccc(C[C@H]2COC(=O)[C@]2(O)Cc2cccc(OC)c2)c1	> 100 µM (inactive)	91.2 µM (inactive)	> 100 µM (inactive)	> 100 µM (inactive)	> 100	83 µM (inactive)	70.8 µM (inactive)	50.9 µM (inactive)	> 100 µM (inactive)	53.1 µM (inactive)		> 100 µM (inactive)	> 100 µM (inactive)	> 100 µM (inactive)	> 100 µM (inactive)	70.6 µM (inactive)	> 100 µM (inactive)	> 100 µM (inactive)	> 100 µM (inactive)	> 100 µM (inactive)
CCOC(=O)C1=C(C)NC(c2ccccc2)=C(C(=O)OCc2ccccc2)C1C#Cc1ccccc1 (stereo unspecified)	> 100 µM (inactive)	> 100 µM (inactive)	> 100 µM (inactive)	> 100 µM (inactive)	> 100	> 100 µM (inactive)		> 100 µM (inactive)	12.4 µM (inactive)	> 100 µM (inactive)	> 100 µM (inactive)	> 100 µM (inactive)	> 100 µM (inactive)	> 100 µM (inactive)	> 100 µM (inactive)	> 100 µM (inactive)			0.274 µM (active)	> 100 µM (inactive)
C[C@H]1[C@@H](c2ccccc2)O[B-](c2ccccc2)(c2ccccc2)[N+]1(C)C	21.5 µM (inactive)	> 100 µM (inactive)	70.1 µM (inactive)	33.5 µM (inactive)	38.4	32.6 µM (inactive)		28.1 µM (inactive)	99.3 µM (inactive)	43.6 µM (inactive)		84.1 µM (inactive)	86.1 µM (inactive)	> 100 µM (inactive)	49.7 µM (inactive)	36.3 µM (inactive)	10 µM (inactive)	21.4 µM (inactive)	48.8 µM (inactive)	> 100 µM (inactive)
